Patent US20190240225A1, “COMBINATION OF A BCL-2 INHIBITOR AND A MCL-1 INHIBITOR, USES AND PHARMACEUTICAL COMPOSITIONS THEREOF” (LES LABORATOIRES SERVIER, priority 2016, published 2019)

What was measured:
Assay in all cases: MTT cell viability assay, myeloma cell line
Type in all cases: cell-based, human
ANBL6 = conditions: Homo sapiens, ANBL-6, single agent, read-out: IC50
Procedure: (§1) Cell lines: Human myeloma cell lines (HMCLs) were derived from primary myeloma cells cultured in RPMI 1640 medium supplemented with 5% fetal calf serum from and 3 ng/mL recombinant IL-6 for IL-6 dependent cell lines. HMCLs are representative of phenotypic and genomic heterogeneity and the variability in patient's response to therapy.
(§2) MTT assay: Cell viability is measured using MTT (3-(4,5-dimethylthiazol-2-yl)-2,5-diphenyltetrazolium bromide) colorimetric survival assay. Cells are incubated with compounds in 96-well plates containing a final volume of 100 μl/well time. (2R)-2-{[(5Sa)-5-{3-chloro-2-methyl-4-[2-(4-methylpiperazin-1-yl)ethoxy]phenyl}-6-(5-fluorofuran-2-yl)thieno[2,3-d]pyrimidin-4-yl]oxy}-3-(2-{[1-(2,2,2-trifluoroethyl)-1H-pyrazol-5-yl]methoxy}phenyl)propanoic acid (Compound 2) is used at 9 different concentrations accordingly to single agent sensitivity. N-(4-hydroxyphenyl)-3-{6-[((3S)-3-(4-morpholinylmethyl)-3,4-dihydro-2(1H)-isoquinolinyl)carbonyl]-1,3-benzodioxol-5-yl}-N-phenyl-5,6,7,8-tetrahydro-1-indolizine carboxamide hydrochloride (Compound 1, HCl) is used at a fixed dose—1 μM. At the end of each treatment, cells are incubated with 1 mg/mL MTT (50 μl MTT solution 2.5 mg/ml for each well) at 37° C. for 3 hours allowing the MTT to be metabolized. Lysis buffer (100 μl Lysis buffer: DMF (2:3)/SDS (1:3)) is added into each well to dissolve formazan cristals and after 18 h of incubation, absorbance in viable cells is measured at 570 nm using a spectrophotometer.
(§3) The sensitivity of 27 human multiple myeloma cell lines to Compound 1, Compound 2 or to Compound 2 in the presence of 1 μM of Compound 1 was analyzed by using MTT cell viability assay. 50% inhibitory concentrations (IC50, in nM) were determined.

JIM3 = conditions: Homo sapiens, single agent, read-out: IC50
Procedure: as §1, §2, §3

JJN3 = conditions: Homo sapiens, JJN-3, single agent, read-out: IC50
Procedure: as §1, §2, §3

KMM1 = conditions: Homo sapiens, KMM-1, single agent, read-out: IC50
Procedure: as §1, §2, §3

KMS12BM = conditions: Homo sapiens, KMS-12-BM, single agent, read-out: IC50
Procedure: as §1, §2, §3

L363 = conditions: Homo sapiens, L-363, single agent, read-out: IC50
Procedure: as §1, §2, §3

LP1 = conditions: Homo sapiens, LP-1, single agent, read-out: IC50
Procedure: as §1, §2, §3

NAN3 = conditions: Homo sapiens, single agent
Procedure: as §1, §2, §3

NAN9 = conditions: Homo sapiens, single agent, read-out: IC50
Procedure: as §1, §2, §3

NCI-H929 = conditions: Homo sapiens, single agent, read-out: IC50
Procedure: as §1, §2, §3

OPM2 = conditions: Homo sapiens, OPM-2, single agent, read-out: IC50
Procedure: as §1, §2, §3

RPMI8226 = conditions: Homo sapiens, RPMI-8226, single agent, read-out: IC50
Procedure: as §1, §2, §3

SBN = conditions: Homo sapiens, single agent, read-out: IC50
Procedure: as §1, §2, §3

U266 = conditions: Homo sapiens, U-266, single agent, read-out: IC50
Procedure: as §1, §2, §3

XG11 = conditions: Homo sapiens, single agent, read-out: IC50
Procedure: as §1, §2, §3

XG2 = conditions: Homo sapiens, single agent, read-out: IC50
Procedure: as §1, §2, §3

XG3 = conditions: Homo sapiens, single agent, read-out: IC50
Procedure: as §1, §2, §3

XG6 = conditions: Homo sapiens, single agent, read-out: IC50
Procedure: as §1, §2, §3

XG7 = conditions: Homo sapiens, single agent, read-out: IC50
Procedure: as §1, §2, §3

With Cl.O=C(c1cc(-c2cc3c(cc2C(=O)N2Cc4ccccc4C[C@H]2CN2CCOCC2)OCO3)n2c1CCCC2)N(c1ccccc1)c1ccc(O)cc1 [Compound 1, HCl, N-(4-hydroxyphenyl)-3-{6-[((3S)-3-(4-morpholinylmethyl)-3,4-dihydro-2(1H)-isoquinolinyl)carbonyl]-1,3-benzodioxol-5-yl}-N-phenyl-5,6,7,8-tetrahydro-1-indolizine carboxamide hydrochloride] the IC50 (ANBL6) was 1.91 µM, the IC50 (JIM3) was > 30 µM and the IC50 (JJN3) was 2.69 µM. It also gave an IC50 (KMM1) of 23.9 µM, an IC50 (KMS12BM) of 1.39 µM and an IC50 (L363) of 7.58 µM. The IC50 (LP1) was 9.77 µM, the IC50 (NAN3) was 8.24 µM and the IC50 (NAN9) was 23.2 µM. It also gave an IC50 (NCI-H929) of 15.7 µM, an IC50 (OPM2) of 6.46 µM and an IC50 (RPMI8226) of 3.2 µM. For the same molecule, the IC50 (SBN) was 21.3 µM, the IC50 (U266) was > 30 µM and the IC50 (XG11) was 7.91 µM. The IC50 (XG2) was 15.3 µM, the IC50 (XG3) was 7.22 µM and the IC50 (XG6) was 8.54 µM. For the same molecule, the IC50 (XG7) was 18.1 µM.
